Conditions: Liquid, Vibrating tube method

CCCCO [butan-1-ol]
Conditions | mass density [kg/m3]
333.15 K, 51953 kPa | 816.927
333.15 K, 54876 kPa | 818.691
333.15 K, 58057 kPa | 820.5
333.15 K, 59993 kPa | 821.547
333.15 K, 62049 kPa | 822.689
333.15 K, 64970 kPa | 824.293
333.15 K, 66005 kPa | 824.853
333.16 K, 87.7 kPa | 779.482
333.16 K, 303.5 kPa | 779.691
333.16 K, 1003 kPa | 780.346
333.16 K, 12011 kPa | 789.847
333.16 K, 17992 kPa | 794.568
333.16 K, 20036 kPa | 796.123
333.16 K, 25027 kPa | 799.667
333.16 K, 33073 kPa | 805.134
338.15 K, 80.9 kPa | 775.106
338.15 K, 309.8 kPa | 775.333
338.15 K, 561.6 kPa | 775.578
338.15 K, 898.5 kPa | 775.911
338.15 K, 1014.1 kPa | 776.019
338.15 K, 2936.1 kPa | 777.859
338.15 K, 5018.6 kPa | 779.821
338.15 K, 10034 kPa | 784.276
338.15 K, 14885 kPa | 788.349
338.15 K, 17956 kPa | 790.925
338.15 K, 19927 kPa | 792.473
338.15 K, 22041 kPa | 794.077
338.15 K, 25026 kPa | 796.362
338.15 K, 29994 kPa | 799.911
338.15 K, 32882 kPa | 801.907
338.15 K, 33937 kPa | 802.603
338.15 K, 35012 kPa | 803.345
338.15 K, 39987 kPa | 806.717
338.15 K, 41990 kPa | 808.025
338.15 K, 44978 kPa | 809.926
338.15 K, 47971 kPa | 811.881
338.15 K, 49999 kPa | 813.099
338.15 K, 52127 kPa | 814.375
338.15 K, 57940 kPa | 817.865
338.15 K, 60014 kPa | 819.058
338.15 K, 65012 kPa | 821.872
338.15 K, 66057 kPa | 822.451
338.16 K, 2000.2 kPa | 776.987
338.16 K, 6917.3 kPa | 781.55
338.16 K, 9046.9 kPa | 783.457
338.16 K, 11959 kPa | 785.981
338.16 K, 27976 kPa | 798.446
338.16 K, 31949 kPa | 801.318
338.16 K, 37962 kPa | 805.345
338.16 K, 54992 kPa | 816.085
338.16 K, 62074 kPa | 820.252
338.16 K, 67534 kPa | 823.221
343.15 K, 73.7 kPa | 769.631
343.15 K, 297.3 kPa | 769.853
343.15 K, 520.3 kPa | 770.07
343.15 K, 911.7 kPa | 770.459
343.15 K, 1017.7 kPa | 770.563
343.15 K, 1994.6 kPa | 771.497
343.15 K, 2332.5 kPa | 771.83
343.15 K, 2968.3 kPa | 772.434
343.15 K, 4994.8 kPa | 774.313
343.15 K, 6976.6 kPa | 776.117
343.15 K, 9002.6 kPa | 777.941
343.15 K, 10060 kPa | 778.847
343.15 K, 12025 kPa | 780.506
343.15 K, 14928 kPa | 782.929
343.15 K, 17975 kPa | 785.398
343.15 K, 19985 kPa | 786.983
343.15 K, 22033 kPa | 788.56
343.15 K, 25091 kPa | 790.858
343.15 K, 28045 kPa | 793.012
343.15 K, 30082 kPa | 794.441
343.15 K, 32170 kPa | 795.891
343.15 K, 33097 kPa | 796.546
343.15 K, 35030 kPa | 797.771
343.15 K, 37943 kPa | 799.701
343.15 K, 40012 kPa | 801.058
343.15 K, 41972 kPa | 802.307
